Measurements taken from patent US9932327B2, “Rohitukine analogs as cyclin-dependent kinase inhibitors and a process for the preparation thereof” (COUNCIL OF SCIENTIFIC AND INDUSTRIAL RESEARCH, priority 2013, dated 2018).

How the values were obtained:
Format in all cases: cell-based
[1] = system: PC-3 (Prostate); test: Cytotoxicity, MTT assay, PC-3; conditions: for inhibition at 10 µM: read-out: Cell Growth Inhibition (%)
Protocol: (§1) Compounds proposed in the present invention were evaluated for their cytotoxic effect against panel of six cancer cell line viz. HL-60 (Leukemia), PC-3 (Prostate), A-375 (Melanoma), MIAPaCa-2 (pancreatic), MCF-7 (Breast) and Caco-2 (Colon) using MTT assay. In each well of a 96-well plate, 3×10^3 cells were grown in 100 μL of medium. After 24 h, each test molecules were added to achieve a final concentration of 10 to 0.01 μmol/L, respectively. After 48 h of treatment, 20 μL of 2.5 mg/mL MTT (Organics Research, Inc.) solution in phosphate buffer saline was added to each well. After 48 h, supernatant was removed and formazan crystals were dissolved in 200 μL of DMSO. Absorbance was then measured at 570 nm using an absorbance plate reader (Bio-Rad Microplate Reader). Data are expressed as the percentage of viable cells in treated relative to non-treated conditions.

[2] = system: MCF-7 (Breast); test: Cytotoxicity, MTT assay, MCF-7; conditions: Homo sapiens; for inhibition at 10 µM: MCF7, 10 μM, read-out: Cell Growth Inhibition (%)
Protocol: as §1

[3] = system: MIAPaCa-2 (pancreatic); test: Cytotoxicity, MTT assay, MIAPaCa-2; conditions: Homo sapiens, MIA PaCa-2, read-out: Cell Growth Inhibition (%)
Protocol: as §1

[4] = system: HL-60 (Leukemia); test: Cytotoxicity, MTT assay, HL-60; conditions: Homo sapiens; for inhibition at 10 µM: read-out: Cell Growth Inhibition (%)
Protocol: as §1

[5] = system: A-375 (Melanoma); test: Cytotoxicity, MTT assay, A-375; conditions: Homo sapiens; for inhibition at 10 µM: read-out: Cell Growth Inhibition (%)
Protocol: as §1

[6] = system: Caco-2 (Colon); test: Cytotoxicity, MTT assay, Caco-2; conditions: Homo sapiens; for inhibition at 10 µM: read-out: Cell Growth Inhibition (%)
Protocol: as §1

Work on `Cc1cc(=O)c2c(O)cc(OC/C=C/c3ccccc3)c(C3CCN(C)CC3O)c2o1` (stereo not drawn) [Compound 7, 7-(Cinnamyloxy)-5-hydroxy-8-(3-hydroxy-1-methylpiperidin-4-yl)-2-methyl-4H-chromen-4-one] yielded an inhibition at 10 µM [1] of 18.3%, an inhibition at 10 µM [2] of 7.02% and an inhibition at 10 µM [3] of 11.2%. It also gave an inhibition at 10 µM [4] of 21%, an inhibition at 10 µM [5] of 21.8% and an inhibition at 10 µM [6] of 9.49%.
`Cc1oc2c(C3CCN(C)CC3O)c(O)cc(O)c2c(=O)c1C(O)c1c(F)cccc1Cl` (stereo not drawn) [Compound 21, 3-((2-Chloro-6-fluorophenyl)(hydroxy)methyl)-5,7-dihydroxy-8-(3-hydroxy-1-methylpiperidin-4-yl)-2-methyl-4H-chromen-4-one] gave an inhibition at 10 µM [1] of 72.5%, an inhibition at 10 µM [2] of 13.6% and an inhibition at 10 µM [3] of 8.58%. For the same molecule, the inhibition at 10 µM [4] was 25.4%, the inhibition at 10 µM [5] was 20.8% and the inhibition at 10 µM [6] was 5.94%.
With `Cc1cc(=O)c2c(O)cc(OCc3ccc([N+](=O)[O-])cc3)c(C3CCN(C)CC3O)c2o1` (stereo not drawn) [Compound 8, 7-(4-Nitrobenzyloxy)-5-hydroxy-8-(3-hydroxy-1-methylpiperidin-4-yl)-2-methyl-4H-chromen-4-one] the inhibition at 10 µM [1] was 23%, the inhibition at 10 µM [2] was 39.3% and the inhibition at 10 µM [3] was 12.4%. The inhibition at 10 µM [4] was 14.4%, the inhibition at 10 µM [5] was 37.5% and the inhibition at 10 µM [6] was 13.6%.
`Cc1oc2c(C3CCN(C)CC3O)c(O)cc(O)c2c(=O)c1C(O)c1ccc(Cl)cc1` (stereo not drawn) [Compound 14, 3-((4-Chlorophenyl)(hydroxy)methyl)-5,7-dihydroxy-8-(3-hydroxy-1-methylpiperidin-4-yl)-2-methyl-4H-chromen-4-one] gave an inhibition at 10 µM [1] of 41%, an inhibition at 10 µM [2] of 5.91% and an inhibition at 10 µM [3] of 14.8%. For the same molecule, the IC50 [4] was 11 µM, the inhibition at 10 µM [4] was 1.93% and the inhibition at 10 µM [5] was 34.2%. For the same molecule, the inhibition at 10 µM [6] was 2.83%.
`Cc1cc(=O)c2c(O)cc(OC(=O)c3ccccc3C)c(C3CCN(C)CC3O)c2o1` (stereo not drawn) [Compound 12, 5-Hydroxy-8-(3-hydroxy-1-methylpiperidin-4-yl)-2-methyl-4-oxo-4H-chromen-7-yl 2-methylbenzoate] was tested, and the inhibition at 10 µM [1] was 18.6%, the inhibition at 10 µM [2] was 13.4% and the inhibition at 10 µM [3] was 7.19%. The inhibition at 10 µM [4] was 12.8%, the inhibition at 10 µM [5] was 42% and the inhibition at 10 µM [6] was 6.53%.
In the case of `Cc1oc2c(C3CCN(C)CC3O)c(O)cc(O)c2c(=O)c1C(O)c1ccccc1Br` (stereo not drawn) [Compound 15, 3-((2-Bromophenyl)(hydroxy)methyl)-5,7-dihydroxy-8-(3-hydroxy-1-methylpiperidin-4-yl)-2-methyl-4H-chromen-4-one], the inhibition at 10 µM [1] is reported as 44.5%, the inhibition at 10 µM [2] is reported as 20.6% and the inhibition at 10 µM [3] is reported as 10.1%. It also gave an inhibition at 10 µM [4] of 52%, an inhibition at 10 µM [5] of 22.4% and an inhibition at 10 µM [6] of 6.62%.
For `CN1CCC(c2c(O)cc(O)c3c(=O)cc(/C=C/c4ccccc4F)oc23)C(O)C1` (stereo not drawn) [Compound 30, 2-(2-Fluorostyryl)-5,7-dihydroxy-8-(3-hydroxy-1-methylpiperidin-4-yl)-4H-chromen-4-one], the IC50 [1] was 7 µM, the inhibition at 10 µM [1] was 72.2% and the IC50 ([2]; MCF7) was 3 µM. For the same molecule, the inhibition at 10 µM [2] was 81.1%, the inhibition at 10 µM [3] was 21.3% and the IC50 [4] was 8 µM. It also gave an inhibition at 10 µM [4] of 80.5%, an IC50 [5] of 7 µM and an inhibition at 10 µM [5] of 54.1%. The IC50 [6] was 8 µM and the inhibition at 10 µM [6] was 51%.
Work on `Cc1oc2c(C3CCN(C)CC3O)c(O)cc(O)c2c(=O)c1C(O)c1c(Cl)cccc1Cl` (stereo not drawn) [Compound 20, 3-((2,6-dichlorophenyl)(hydroxy)methyl)-5,7-dihydroxy-8-(3-hydroxy-1-methylpiperidin-4-yl)-2-methyl-4H-chromen-4-one] yielded an IC50 [1] of 5 µM.
`Cc1cc(=O)c2c(O)cc(OCc3ccc(Br)cc3)c(C3CCN(C)CC3O)c2o1` (stereo not drawn) [Compound 4, 7-(4-Bromobenzyloxy)-5-hydroxy-8-(3-hydroxy-1-methylpiperidin-4-yl)-2-methyl-4H-chromen-4-one] was tested, and the inhibition at 10 µM [1] was 17.1%, the inhibition at 10 µM [2] was 14% and the inhibition at 10 µM [3] was 13.2%. For the same molecule, the inhibition at 10 µM [4] was 26.9%, the inhibition at 10 µM [5] was 45.5% and the inhibition at 10 µM [6] was 13%.
In the case of `Cc1cc(=O)c2c(O)cc(OCc3ccccc3Br)c(C3CCN(C)CC3O)c2o1` (stereo not drawn) [Compound 9, 7-(2-Bromobenzyloxy)-5-hydroxy-8-(3-hydroxy-1-methylpipetidin-4-yl)-2-methyl-4H-chromen-4-one], the inhibition at 10 µM [1] is reported as 31.7%, the inhibition at 10 µM [2] is reported as 45.4% and the inhibition at 10 µM [3] is reported as 29.7%. It also gave an inhibition at 10 µM [4] of 3.05%, an IC50 [5] of 12 µM and an inhibition at 10 µM [5] of 58.6%. For the same molecule, the inhibition at 10 µM [6] was 35.1%.
`Cc1cc(=O)c2c(O)cc(OCc3cccs3)c(C3CCN(C)CC3O)c2o1` (stereo not drawn) [Compound 6, 7-((Thiophen-2-yl)methoxy)-5-hydroxy-8-(3-hydroxy-1-methylpiperidin-4-yl)-2-methyl-4H-chromen-4-one] gave an inhibition at 10 µM [1] of 22.8%, an inhibition at 10 µM [2] of 19.8% and an inhibition at 10 µM [3] of 13.2%. It also gave an inhibition at 10 µM [4] of 22.2%, an IC50 [5] of 8 µM and an inhibition at 10 µM [5] of 53.8%. For the same molecule, the inhibition at 10 µM [6] was 33.3%.
